# Reference: patent publication US6890954B1, “Uses of 2-bromopalmitate in the treatment of autoimmune disease” (priority 1999, dated 2005)
# Columns and labels:
# Format in all cases: cell-based
# GαO(10)-Fyn = assay: Membrane binding of Gαo(10)-Fyn chimera in COS-1 cells; conditions: COS-1, 2-bromopalmitate overnight, 5 min label
# Protocol: For analysis of newly synthesized Fyn, cells were cultured overnight as descibed above, then starved for 1 hr in DMEM minus methionine and cysteine containing 2% dialyzed FBS, 0.5% defatted BSA with or without 100 μM 2-bromopalmitate. Cells were labeled for 5 minutes with Trans^35S-Label (ICN, Irvine, Calif.), then fractionated as described above. Gels were treated for 20 minutes with 1M salicylic acid prior to drying. The Gαo(10)-Fyn chimera was labeled for 5 min and GAP-43 Fyn chimera was labeled for 2 hours and fractionated according to the above conditions.
# Each of these three sequences was appended onto the Fyn protein. Gαo(10)-Fyn and GAP43(10)-Fyn are chimeric constructs with the first 10 amino acids of Gαo or GAP-43, respectively, in place of the first 10 amino acids of wt Fyn. These constructs have been previously described (12,13). In addition, the H-Ras tail was fused to the C-terminus of a non-acylated Fyn mutant (G2A,C3SFyn-HRas). This construct contains full length Fyn with mutations in the N-terminal myristoylation and palmitoylation sites, but with the C-terminus of H-Ras available for prenylation and palmitoylation.
# LAT = assay: DRM (raft) localization in activated Jurkat cells, sucrose gradient: LAT; conditions: 100 μM 3 hours, OKT3 activated, control 71%
# Protocol: Isolation of Triton X-100 resistant and soluble fractions was carried out as described previously (12). Isolation of detergent resistant microdomains by sucrose gradients were carried out as follows (19): Jurkat cells (5×10^7) were treated with 2-bromopalmitate, activated with OKT3 mAb as described above, and lysed in 1 ml lysis buffer (25 mM MES pH 6.5, 150 mM NaCl, 0.5% Triton X-100, 1 mM Na3VO4) supplemented with protease inhibitors for 30 minutes at 0° C. After homogenizing 10 times with a loose fit Dounce homogenizer, lysates were mixed with 1 ml 85% sucrose in MBS (25 mM MES pH 6.5, 150 mM NaCl), and overlayered with 6 ml 30% sucrose in MBS, then with 4 ml 5% sucrose in MBS. Following centrifugation for 16 hours at 145,000 g in an SW40 rotor, 1 ml fractions were collected and analyzed by PAGE and immunoblotting with anti-Fyn, anti-LAT, or anti-Lck antibodies.
# The ability of 2-bromopalmitate to inhibit localization of palmitoylated proteins to detergent resistant microdomains in activated Jurkat cells was examined next. Cells were either left untreated or treated with 100 μM 2-bromopalmitate for 3 hours, washed, resuspended in serum-free media, and the TCR was activated with OKT3 mAb. Activated cells were extracted with Triton X-100 containing buffer. […] Each fraction was analyzed by immunoblotting with specific antibodies. […]
# PI3K = assay: CD3-mediated tyrosine phosphorylation of PI3K in Jurkat cells; conditions: 100 μM 3 hours, OKT3
# Protocol: Jurkat T cells (2×10^6−1×10^7) were centrifuged at 1,000×g for 5 minutes, rinsed with RPMI, resuspended in RPMI supplemented with 2% dialyzed FBS, 0.5% defatted BSA, and incubated with or without 100 μM 2-bromopalmitate at 8×10^5 cells/ml for 3 hours. The cells were centrifuged, washed with RPMI and resuspended in RPMI at 1×10^7−1×10^8 cells/ml. The cells were then activated with anti-CD3 OKT3 mAb (0.3 mg/ml) for 3 min at 37° C., quickly spun down, washed once with cold RPMI and once with cold STE, and lysed in RIPA Samples were solubilized in 1× sample buffer containing 5% β-mercaptoethanol and subjected to SDS-PAGE, followed by immunoblotting with anti-phosphotyrosine antibody (PY99). For analysis of specific proteins, RIPA lysates were immunoprecipitated with the specific antibodies O/N, and immunoblotted for phosphotyrosine. Alternatively, proteins were immunoprecipitated with agarose-conjugated anti phosphotyrosine antibody and blotted for the specific proteins.
# In order to identify the individual proteins whose tyrosine phosphorylation is affected by 2-bromopalmitate, lysates were immunoprecipitated with a panel of specific antibodies, and immunoblotted for phosphotyrosine. Alternatively, lysates were immunoprecipitated with an antiphosphotyrosine antibody, and blotted with antibodies to specific proteins.
# Jurkat cells = assay: Toxicity control: LAT and actin levels by immunoblot in Jurkat cells; conditions: toxicity check, data not shown
# Protocol: To verify that the observed inhibition of T cell receptor-mediated tyrosine phosphorylation was not a result of toxicity effects of 2-bromopalmitate, aliquots of each sample were analyzed by immunoblotting with anti-LAT and anti-actin antibodies. The levels of LAT and actin were not affected by 2-bromopalmitate (data not shown). Thus 2-bromopalmitate was able to inhibit signaling through the T cell receptor, as assayed by its ability to inhibit tyrosine phosphorylation of key substrate proteins.
# Jurkat T cells = assay: Calcium mobilization assay in Jurkat T cells (fluo-3, flow cytometry)
# Protocol: Jurkat cells were treated with 2-bromopalmitate as described above. The cells (2×10^5) were collected by centrifugation and resuspended at 2×10^6 cells/ml in RPMI containing in 50 μM fluo-3 with or without 100 μM 2-bromopalmitate for 30 minutes at room temperature. Cells loaded with fluo-3 were then collected by centrigation, washed with Hank's Buffered Saline Solution (5.4 mM KCl, 0.3 mM Na2HPO4, 0.4 mM KH2PO4, 4 mM NaHCO3, 1.3 mM CaCl2, 0.5 mM MgCl2, 0.6 mM MgSO4, 137 mM NaCl, 5.6 mM glucose, 20 mM Hepes pH 7.4) and resuspended in the same buffer at 5×10^5 cells/ml at 37° C. To initiate calcium flux, the cells were activated with OKT3 antibody as described above, and analyzed for free calcium ion by measurement of fluo-3 fluoresence emission by flow cytometry.
# Jurkat cells were incubated with or without 2-bromopalmitate, washed and stained with the fluorescent dye fluo-3 (50 μM). Cells were activated with OKT3 antibody and analyzed by flow cytometry. […] No effect of 2-bromopalmitate on cells incubated in the absence of OKT3 was noted.
smiles,measurement,setting,value
CCCCCCCCCCCCCCC(Br)C(=O)O (stereo not drawn) [2-bromopalmitate],inhibition of membrane binding of GαO(10)-Fyn,GαO(10)-Fyn,to the same extent as wt Fyn
same,LAT associated with detergent resistant microdomains,LAT,41%
same,PI3K phosphorylation inhibited,PI3K,50%
same,levels of LAT and actin,Jurkat cells,not affected
same,calcium flux in response to T cell receptor activation,"Jurkat T cells; 100 μM, OKT3 activated",shut down almost completely
same,effect on calcium in cells incubated in the absence of OKT3,Jurkat T cells; no OKT3,No effect
